Experimental findings from patent publication US3980794A, “Method for promoting growth of poultry with 3-(5-nitro-2-imidazolyl)pyrazoles” (Eli Lilly and Company, priority 1975, dated 1976) are described below.

Test [1] concerns Propionibacterium acnes 44. The test is described as follows: Susceptibility of anaerobic bacteria, agar dilution. Type of test: cell-based. As to conditions: read-out: 24 Hr. Minimum Inhibitory Concentration. Background: Agar dilution tests growth on a series of plates holding different concentrations.
Test [2] deals with Bacteroides fragilis sp. vulgatus 1563. The description is as above. The class given is cell-based. As to conditions: 24 h, read-out: 24 Hr. Minimum Inhibitory Concentration.
For test [3], the system named is Bacteroides fragilis sp. fragilis 1877. The test is described as above. The class given is cell-based. Conditions: 24 h, read-out: 24 Hr. Minimum Inhibitory Concentration.
The test system of the next test is Actinomyces bovis 13684. The description is as above. The class given is cell-based. Conditions: read-out: 24 Hr. Minimum Inhibitory Concentration.
Test [4] relates to Bacteroides fragilis sp. vulgatus 1211. The description is as above. The class given is cell-based. Conditions: 24 h, read-out: 24 Hr. Minimum Inhibitory Concentration.
The subject of test [5] is Clostridium perfringens 81. The test is described as follows: microbe, parasite or virus in culture. Conditions: Clostridium perfringens, 81, 24 h, read-out: 24 Hr. Minimum Inhibitory Concentration. The class given is cell-based.
For test [6], the system named is Bacteroides fragilis sp. thetaiotaomicron 1438. The test is described as follows: Susceptibility of anaerobic bacteria, agar dilution. Type of test: cell-based. As to conditions: 24 h, read-out: 24 Hr. Minimum Inhibitory Concentration.
Test [7] concerns Clostridium septicum bovine. Described as above. The class given is cell-based. Conditions: 24 h, read-out: 24 Hr. Minimum Inhibitory Concentration.
Test [8] has as its system Clostridium septicum 1128. The description is as above. Conditions: 24 h, read-out: 24 Hr. Minimum Inhibitory Concentration. Type of test: cell-based.
Test [9] relates to Fusobacterium symbiosum 1470. Described as above. Type of test: cell-based. Conditions: read-out: 24 Hr. Minimum Inhibitory Concentration.
For another test, the system named is Salmonella typhimurium. The test is described as follows: Control of infections caused by Salmonella typhimurium in chickens, subcutaneous (Experiment 2). Type of test: in vivo. As to conditions: Salmonella enterica, sc, 144 h, 6 days, read-out: Survival Ratio (converted); for responders at 15 mg/kg: 15 mg./kg. subcutaneous; for responders at 30 mg/kg: 30 mg./kg. subcutaneous; for responders at 60 mg/kg: 60 mg./kg. subcutaneous; for responders at 7.5 mg/kg: 7.5 mg./kg. subcutaneous. The method, then: The efficacy of the novel compounds in the control of infections caused by Salmonella typhimurium in chickens was evaluated in the following manner.
The test was carried out using day-old chicks weighing approximately 35 g. each. The chicks were divided into groups of 5 chicks per each dosage level. A portion of the chicks received the test compound which was suspended in 0.2 ml. of polyethylene glycol 200 and administered subcutanusly in the neck. […] All the chicks were challenged with a 1:200 dilution of a culture of the organism, 0.1 ml. of the dilution being injected into each chick in the leg intramuscularly. […] The test compounds are identified in the same manner as set forth in Experiment 1.
In the chart, column 1 lists the compounds tested; column 2, the dosage of test compound in mg./kg.; and column 3, the survival ratio.

Test [10] relates to Veillonella alcalescens 1. The test is described as follows: Susceptibility of anaerobic bacteria, agar dilution. As to conditions: read-out: 24 Hr. Minimum Inhibitory Concentration. Type of test: cell-based.
Test [11] relates to Clostridium innocuum 1373. Described as above. Type of test: cell-based. As to conditions: read-out: 24 Hr. Minimum Inhibitory Concentration.
Test [12] has as its system Fusobacterium necrophorum 13859. The description is as above. Type of test: cell-based. Conditions: read-out: 24 Hr. Minimum Inhibitory Concentration.
For test [13], the system named is Propionibacterium acnes 79. The description is as above. The class given is cell-based. Conditions: read-out: 24 Hr. Minimum Inhibitory Concentration.
In test [14] the test system is Bacteroides fragilis sp. fragilis 1936B. Described as above. Type of test: cell-based. Conditions: 24 h, read-out: 24 Hr. Minimum Inhibitory Concentration.
The test system of test [15] is Eubacterium aerofaciens 1235. The test is described as above. Type of test: cell-based. As to conditions: read-out: 24 Hr. Minimum Inhibitory Concentration.
In test [16] the test system is Peptostreptococcus intermedius 1264. The test is described as above. As to conditions: read-out: 24 Hr. Minimum Inhibitory Concentration. Type of test: cell-based.
Test [17] deals with Peptococcus anaerobius 1428. Described as above. The class given is cell-based. As to conditions: 24 h, read-out: 24 Hr. Minimum Inhibitory Concentration.
The test system of a further test is Clostridium ramosum 1313. Described as above. The class given is cell-based. As to conditions: read-out: 24 Hr. Minimum Inhibitory Concentration.
Setting [18] is: Cutibacterium acnes, 24 h, Propionibacterium acnes 44.
Setting [19] is: Veillonella parvula, 24 h, Veillonella alcalescens 1.
The mark [20] stands for this setting: 24 h, Peptostreptococcus intermedius 1264.
Where [21] appears, read: Thomasclavelia ramosa, 24 h, Clostridium ramosum 1313.
The mark [22] stands for this setting: [Clostridium] innocuum, 1373, 24 h.
The mark [23] stands for this setting: Fusobacterium necrophorum, 13859, 24 h.
Setting [24] is: Collinsella aerofaciens, 1235, 24 h.
Where [25] appears, read: Thomasclavelia ramosa, 1313, 24 h.

Converted amounts (≈) assume the structure as drawn. Like-named read-outs stand apart in the source and are kept apart here.

Turning to `CC(=O)Nc1c(C#N)c(-c2ncc([N+](=O)[O-])n2C)nn1C` [Compound 8, N-[4-cyano-1-methyl-3-(1-methyl-5-nitro-2-imidazolyl)pyrazol-5-yl]acetamide], the MIC in [1] (setting [18]) is greater than 8 µg/mL; in test [2] (Bacteroides fragilis sp. vulgatus 1563), 0.25 µg/mL (≈ 0.864 µM); in test [3] (Bacteroides fragilis sp. fragilis 1877), 0.25 µg/mL (≈ 0.864 µM); in the test on Actinomyces bovis 13684 (24 h, Actinomyces bovis 13684), 4 µg/mL (≈ 13.8 µM); in test [4] (Bacteroides fragilis sp. vulgatus 1211), 0.25 µg/mL (≈ 0.864 µM); in test [5] it was 1 µg/mL (≈ 3.46 µM). Further, the MIC in test [6] (Bacteroides fragilis sp. thetaiotaomicron 1438) was found to be 0.5 µg/mL (≈ 1.73 µM); in [7] it was 1 µg/mL (≈ 3.46 µM); in test [8], 0.25 µg/mL (≈ 0.864 µM); in [9] (24 h, Fusobacterium symbiosum 1470) it was 0.03 µg/mL (≈ 0.104 µM); in test [10] (setting [19]), 0.03 µg/mL (≈ 0.104 µM); in test [11] (24 h, Clostridium innocuum 1373), 1 µg/mL (≈ 3.46 µM). Also, the MIC is 0.06 µg/mL (≈ 0.207 µM) in test [12] (24 h, Fusobacterium necrophorum 13859); 0.03 µg/mL (≈ 0.104 µM) in [13] (Cutibacterium acnes, 24 h, Propionibacterium acnes 79); 0.25 µg/mL (≈ 0.864 µM) in test [14] (Bacteroides fragilis sp. fragilis 1936B); 0.125 µg/mL (≈ 0.432 µM) in [15] (Collinsella aerofaciens, 24 h, Eubacterium aerofaciens 1235); 4 µg/mL (≈ 13.8 µM) in test [16] (setting [20]); 1 µg/mL (≈ 3.46 µM) in test [17] (Peptococcus anaerobius 1428). Moreover, the MIC with Clostridium ramosum 1313 (setting [21]) came to 0.25 µg/mL (≈ 0.864 µM). The responders at 15 mg/kg in the test on Salmonella typhimurium is 0%. The responders at 30 mg/kg in the test with Salmonella typhimurium was 20%. Further, the responders at 60 mg/kg in the test with Salmonella typhimurium is 60%.

Take `Cn1c([N+](=O)[O-])cnc1-c1nn(CCO)c(N)c1C#N` [Compound 14, 5-Amino-1-(2-hydroxyethyl)-3-(1-methyl-5-nitro-2-imidazolyl)pyrazole-4-carbonitrile]: the MIC in test [1] (setting [18]) was greater than 32 µg/mL; in [2] (Bacteroides fragilis) it was less than 0.125 µg/mL; in test [3] (Bacteroides fragilis) it was less than 0.125 µg/mL; with Actinomyces bovis 13684 (Actinomyces bovis, 13684, 24 h) it was less than 0.125 µg/mL; in test [4] (Bacteroides fragilis) it was less than 0.125 µg/mL; in test [5], less than 0.125 µg/mL. The MIC in test [6] (Bacteroides fragilis) was less than 0.125 µg/mL; in test [7], less than 0.125 µg/mL; in test [8], less than 0.125 µg/mL; in [9] (Fusobacterium, 1470, 24 h), less than 0.125 µg/mL; in test [10] (Veillonella parvula, 1, 24 h) it was less than 0.125 µg/mL; in test [11] (setting [22]), less than 0.125 µg/mL. The MIC was less than 0.125 µg/mL in test [12] (setting [23]); less than 0.125 µg/mL in test [13] (Cutibacterium acnes, 79, 24 h); less than 0.125 µg/mL in test [14] (Bacteroides fragilis); less than 0.125 µg/mL in test [15] (setting [24]); 1 µg/mL (≈ 3.61 µM) in test [16] (setting [20]); less than 0.125 µg/mL in [17]. In addition, in the test on Clostridium ramosum 1313 (setting [25]), the MIC is less than 0.125 µg/mL. The responders at 7.5 mg/kg in the test with Salmonella typhimurium is 20%. Moreover, the responders at 15 mg/kg with Salmonella typhimurium was 6.67%. For the same compound, the responders at 30 mg/kg in the test with Salmonella typhimurium is 40%. For the same compound, the responders at 60 mg/kg in the test on Salmonella typhimurium is 93.3%.

With `CC=CC=Nc1c(C#N)c(-c2ncc([N+](=O)[O-])n2C)nn1C` [Compound 18, 5-(2-butenylideneamino)-1-methyl-3-(1-methyl-5-nitro-2-imidazolyl)pyrazole-4-carbonitrile], the MIC in test [1] (setting [18]) is greater than 32 µg/mL; in test [2] (Bacteroides fragilis), less than 0.125 µg/mL; in [3] (Bacteroides fragilis) it was less than 0.125 µg/mL; with Actinomyces bovis 13684 (Actinomyces bovis, 13684, 24 h), less than 0.125 µg/mL; in test [4] (Bacteroides fragilis), less than 0.125 µg/mL; in [5], less than 0.125 µg/mL. Besides, the MIC in test [6] (Bacteroides fragilis) is less than 0.125 µg/mL; in test [7], less than 0.125 µg/mL; in test [8], less than 0.125 µg/mL; in test [9] (Fusobacterium, 1470, 24 h), less than 0.125 µg/mL; in test [10] (Veillonella parvula, 1, 24 h) it was less than 0.125 µg/mL; in test [11] (setting [22]) it was less than 0.125 µg/mL. Moreover, the MIC in test [12] (setting [23]) is less than 0.125 µg/mL; in test [13] (Cutibacterium acnes, 79, 24 h), less than 0.125 µg/mL; in [14] (Bacteroides fragilis) it was less than 0.125 µg/mL; in test [15] (setting [24]), less than 0.125 µg/mL; in [16] (setting [20]) it was 0.25 µg/mL (≈ 0.835 µM); in [17] it was less than 0.125 µg/mL. In the test on Clostridium ramosum 1313 (setting [25]), the MIC was less than 0.125 µg/mL. For the same compound, the responders at 7.5 mg/kg in the test with Salmonella typhimurium was 0%. In addition, the responders at 15 mg/kg in the test with Salmonella typhimurium was 53.3%. Besides, the responders at 30 mg/kg in the test on Salmonella typhimurium is 66.7%. In addition, the responders at 60 mg/kg with Salmonella typhimurium is 66.7%.

In the case of `CC[C@H]1OC(=O)[C@H](C)[C@@H](O[C@H]2C[C@@](C)(OC)[C@@H](O)[C@H](C)O2)[C@H](C)[C@@H](O[C@@H]2O[C@H](C)C[C@H](N(C)C)[C@H]2O)[C@](C)(O)C[C@@H](C)C(=O)[C@H](C)[C@@H](O)[C@]1(C)O` [Erythromycin, erythromycin, reference compound], the MIC in test [1] (Cutibacterium acnes, 44, 24 h) was less than 0.5 µg/mL; in test [2] (Bacteroides fragilis), 2 µg/mL (≈ 2.73 µM); in test [3] (Bacteroides fragilis), 4 µg/mL (≈ 5.45 µM); in the test with Actinomyces bovis 13684 (Actinomyces bovis, 13684, 24 h) it was 1 µg/mL (≈ 1.36 µM); in test [4] (Bacteroides fragilis), 2 µg/mL (≈ 2.73 µM); in test [5], less than 0.5 µg/mL. Besides, the MIC was 4 µg/mL (≈ 5.45 µM) in test [6] (Bacteroides fragilis); less than 0.5 µg/mL in test [7]; 1 µg/mL (≈ 1.36 µM) in test [8]; less than 0.5 µg/mL in [9] (Fusobacterium, 1470, 24 h); 1 µg/mL (≈ 1.36 µM) in test [10] (setting [19]); greater than 128 µg/mL in test [11] (setting [22]). In addition, the MIC in [12] (setting [23]) was 2 µg/mL (≈ 2.73 µM); in [13] (Cutibacterium acnes, 79, 24 h), less than 0.5 µg/mL; in test [14] (Bacteroides fragilis) it was 4 µg/mL (≈ 5.45 µM); in [15] (setting [24]), 1 µg/mL (≈ 1.36 µM); in test [16] (Peptostreptococcus, 1264, 24 h), 8 µg/mL (≈ 10.9 µM); in test [17], 1 µg/mL (≈ 1.36 µM). Further, the MIC in the test on Clostridium ramosum 1313 (setting [21]) was greater than 128 µg/mL.
